Reference: article PMC6413085, “A Validated HPLC-MS/MS Assay for 14-O-[(4,6-Diaminopyrimidine-2-yl)thioacetyl] Mutilin in Biological Samples and Its Pharmacokinetic, Distribution and Excretion via Urine and Feces in Rats” (Molecules, 2019)
Where two headings read alike, the source gives them in different places.

How the values were obtained:
[1] = Pharmacokinetic study of DPTM in rats after i.v., i.m. and p.o. administration (HPLC-MS/MS, non-compartmental); format: in vivo; conditions: Sprague-Dawley, plasma, rat; for Tmax: median (min–max); for bioavailability: read-out: F, absolute bioavailability; for MRT last: read-out: MRT0–t; for CL renal: read-out: CLR(0–t) renal clearance; for Vd: read-out: Vss
Description: After administration of three i.v., i.m. and p.o. dose (10, 25 and 75 mg/kg) of DPTM to rats, the pharmacokinetic profiles of DPTM were quantified by the validated HPLC-MS/MS methods. […] Blood samples (approximately 200 µL) were collected into heparinized tubes through an indwelling catheter inserted in the jugular vein [30] at 0.083, 0.166, 0.5, 1, 2, 4, 6, 8, 12 and 24 h after i.v. dosing and at 0.083, 0.166, 0.5, 1, 2, 4, 6, 8, 12, 24 and 48 h after i.m. or p.o. dosing. The samples were immediately centrifuged (4000 rpm for 10 min) and the supernatants were taken out and stored in a freezer at −70 °C until analysis. The drug was extracted with acetonitrile using the condition previously described. Then, an aliquot of the reconstituted extracts was transferred and filtrated through a 0.22-μm cellulose membrane filter and 10 μL was injected into the HPLC-MS/MS system. A non-compartmental model was used to determine the pharmacokinetic parameters of DPTM. Pharmacokinetic parameters, including maximum plasma concentration (Cmax), time (Tmax), area under the plasma concentration versus time curve from zero to last sampling time (AUC0−t) and elimination half-life (t1/2) were calculated using WinNonlin software (version 2.1, Pharsight, Mountain View, CA, USA). The absolute bioavailability was calculated as follows:F = (AUCextravascular/(AUCi.v.) × (dosei.v./doseextravascular) × 100%. The data are presented as mean ± standard deviation (SD) except for Tmax values using median (minimum value–maximum value).

[2] = Tissue distribution study in rats; format: in vivo, Sprague-Dawley rats; conditions: rat, 75 mg/kg; for highest level in cecum / highest level in jejunum / highest level in large intestine / highest level in lung / highest level in small intestine: within the first 24 h
Description: We also successfully used the established LC-MS/MS method for detection of the concentration of DPTM in rat tissue homogenates. The quantification of DPTM used the specific standard curves in each corresponding bio-matrix. After i.v., i.m. and p.o. administration of 75 mg/kg DPTM, tissue distribution was investigated at 0.5, 4, 12 and 48 h by collecting the heart, liver, brain, spleen, lung, kidney, large intestine, small intestine, ileum, cecum, bladder, jejunum and colon. Tissue distribution study in rats was performed as described previously. Animals were divided into three groups (n = 12) and DPTM was administered via i.m., i.v. and p.o. with a single dose of 75 mg/kg. A series of heart, liver, spleen, lung, kidney, large intestine, small intestine, ileum, cecum, bladder, brain, jejunum and colon samples were collected before and at 0.5, 4, 12 and 48 h time points after administration and rinsed with phosphate buffer to remove the blood and feces, followed by weighing the wet weight and freezing at −70 °C until analysis. The concentrations of DPTM in rat various tissues were expressed in ng/g and calculated by equation: Ct = Cs × Vs/P, where Ct represented the tissue concentration (ng/g), Cs, Vs and P were the concentration (ng/mL), the volume (mL) and the weight (g) of the tissue samples, respectively.

[3] = Excretion via urine and feces study in rats; format: in vivo, Sprague-Dawley rats; conditions: rat, 75 mg/kg
Description: Excretion via urine and feces was studied in another six rats (half male and half female). After the rats were administered via a single i.v., i.m. and p.o. dose (75 mg/kg) of DPTM, urine and feces samples were collected at 0–4, 4–8, 8–12, 12–24, 24–36, 36–48, 48–72, 72–96, 96–144, 144–192 and 192–240 h intervals in plastic centrifuge tubes and stored at −70 °C until analysis. For quantitative analysis, the fecal samples were dried at 45 °C for 24 h and prepared by the established sample treatment procedure. The urinary samples were prepared by the established sample treatment procedure directly. The obtained samples were injected into the HPLC-MS/MS system for analysis.

- Tmax ([1]; im, 10 mg/kg): 0.5 h
- Tmax ([1]; im, 25 mg/kg): 0.5 h
- Tmax ([1]; im, 75 mg/kg): 0.5 h
- bioavailability ([1]; im, i.m., 10 mg/kg): 68.2%
- MRT last ([1]; im, i.m., 10 mg/kg): 4.4 ± 0.3 h
- bioavailability ([1]; im, i.m., 25 mg/kg): 48.5%
- MRT last ([1]; im, i.m., 25 mg/kg): 4.8 ± 0.3 h
- CL renal ([1]; im, i.m., 75 mg/kg): 46.2 ± 3.8 mL/min
- bioavailability ([1]; im, i.m., 75 mg/kg): 15.8%
- MRT last ([1]; im, i.m., 75 mg/kg): 4.2 ± 0.8 h
- clearance ([1]; iv, 10 mg/kg): 5 mL/min/kg
- Tmax ([1]; iv, 10 mg/kg): 0.08 h
- clearance ([1]; iv, 25 mg/kg): 1.67 mL/min/kg
- Tmax ([1]; iv, 25 mg/kg): 0.08 h
- clearance ([1]; iv, 75 mg/kg): 0.5 mL/min/kg
- Tmax ([1]; iv, 75 mg/kg): 0.083 h
- MRT last ([1]; iv, i.v., 10 mg/kg): 1 ± 0.2 h
- Vd ([1]; iv, i.v., 10 mg/kg): 0.3 ± 0.1 L/kg
- MRT last ([1]; iv, i.v., 25 mg/kg): 1.3 ± 0.7 h
- Vd ([1]; iv, i.v., 25 mg/kg): 0.2 L/kg
- CL renal ([1]; iv, i.v., 75 mg/kg): 97.6 ± 9.6 mL/min
- MRT last ([1]; iv, i.v., 75 mg/kg): 1.5 ± 0.4 h
- Vd ([1]; iv, i.v., 75 mg/kg): 0.03 L/kg
- Tmax ([1]; po, 10 mg/kg): 2 h
- Tmax ([1]; po, 25 mg/kg): 2 h
- Tmax ([1]; po, 75 mg/kg): 2 h
- bioavailability ([1]; po, p.o., 10 mg/kg): 22.9%
- MRT last ([1]; po, p.o., 10 mg/kg): 12.8 ± 0.1 h
- bioavailability ([1]; po, p.o., 25 mg/kg): 24.3%
- MRT last ([1]; po, p.o., 25 mg/kg): 9.8 ± 0.2 h
- CL renal ([1]; po, p.o., 75 mg/kg): 12.2 ± 1.3 mL/min
- bioavailability ([1]; po, p.o., 75 mg/kg): 4.17%
- MRT last ([1]; po, p.o., 75 mg/kg): 6.9 ± 0.4 h
- half-life ([1]; im, 10 mg/kg, i.m., 10 mg/kg, read-out: t1/2 (converted)): 3.5 h
- AUC(0-t) ([1]; im, 10 mg/kg, rat serum, i.m., 10 mg/kg, read-out: AUC0→t): 1500 ± 100 ng·h/mL
- Cmax ([1]; im, 10 mg/kg, rat serum, i.m., 10 mg/kg, read-out: Cmax): 500 ± 100 ng/mL
- half-life ([1]; im, 25 mg/kg, i.m., 25 mg/kg, read-out: t1/2 (converted)): 3.2 ± 0.2 h
- AUC(0-t) ([1]; im, 25 mg/kg, rat serum, i.m., 25 mg/kg, read-out: AUC0→t): 2600 ± 200 ng·h/mL
- Cmax ([1]; im, 25 mg/kg, rat serum, i.m., 25 mg/kg, read-out: Cmax): 700 ± 100 ng/mL
- half-life ([1]; im, 75 mg/kg, i.m., 75 mg/kg, read-out: t1/2 (converted)): 3.3 ± 0.3 h
- AUC(0-t) ([1]; im, 75 mg/kg, i.m., range over 10, 25 and 75 mg/kg doses, read-out: area under the curve from 0 to 48 h (AUC0→t)): 1520 to 5700 ng·h/mL
- half-life ([1]; im, 75 mg/kg, i.m., range over 10, 25 and 75 mg/kg doses, read-out: half-life (t1/2)): 3.23 to 3.49 h
- AUC(0-t) ([1]; im, 75 mg/kg, rat serum, i.m., 75 mg/kg, read-out: AUC0→t): 5700 ± 200 ng·h/mL
- Cmax ([1]; im, 75 mg/kg, rat serum, i.m., 75 mg/kg, read-out: Cmax): 1800 ± 100 ng/mL
- Cmax ([1]; im, range over 10, 25 and doses, read-out: maximum concentration (Cmax) of drug in serum): 470 to 1830 ng/mL
- half-life ([1]; iv, 10 mg/kg, i.v., 10 mg/kg, read-out: t1/2 (converted)): 1.7 ± 0.1 h
- AUC(0-t) ([1]; iv, 10 mg/kg, rat serum, i.v., 10 mg/kg, read-out: AUC0→t): 2200 ± 200 ng·h/mL
- Cmax ([1]; iv, 10 mg/kg, rat serum, i.v., 10 mg/kg, read-out: Cmax): 7500 ± 400 ng/mL
- half-life ([1]; iv, 25 mg/kg, i.v., 25 mg/kg, read-out: t1/2 (converted)): 1.7 ± 0.4 h
- AUC(0-t) ([1]; iv, 25 mg/kg, rat serum, i.v., 25 mg/kg, read-out: AUC0→t): 5400 ± 200 ng·h/mL
- Cmax ([1]; iv, 25 mg/kg, rat serum, i.v., 25 mg/kg, read-out: Cmax): 16000 ± 500 ng/mL
- half-life ([1]; iv, 75 mg/kg, i.v., 75 mg/kg, read-out: t1/2 (converted)): 1.9 ± 0.5 h
- AUC(0-t) ([1]; iv, 75 mg/kg, i.v., range over 10, 25 and 75 mg/kg doses, read-out: area under the curve from 0 to 48 h (AUC0→t)): 2230 to 36000 ng·h/mL
- half-life ([1]; iv, 75 mg/kg, i.v., range over 10, 25 and 75 mg/kg doses, read-out: half-life (t1/2)): 1.7 to 1.86 h
- AUC(0-t) ([1]; iv, 75 mg/kg, rat serum, i.v., 75 mg/kg, read-out: AUC0→t): 36000 ± 300 ng·h/mL
- Cmax ([1]; iv, 75 mg/kg, rat serum, i.v., 75 mg/kg, read-out: Cmax): 65100 ± 800 ng/mL
- Cmax ([1]; iv, range over 10, 25 and doses, read-out: maximum concentration (Cmax) of drug in serum): 7540 to 65100 ng/mL
- half-life ([1]; po, 10 mg/kg, p.o., 10 mg/kg, read-out: t1/2 (converted)): 4.6 ± 0.1 h
- AUC(0-t) ([1]; po, 10 mg/kg, rat serum, p.o., 10 mg/kg, read-out: AUC0→t): 500 ± 100 ng·h/mL
- Cmax ([1]; po, 10 mg/kg, rat serum, p.o., 10 mg/kg, read-out: Cmax): 100 ng/mL
- half-life ([1]; po, 25 mg/kg, p.o., 25 mg/kg, read-out: t1/2 (converted)): 4.4 ± 0.2 h
- AUC(0-t) ([1]; po, 25 mg/kg, rat serum, p.o., 25 mg/kg, read-out: AUC0→t): 1300 ± 100 ng·h/mL
- Cmax ([1]; po, 25 mg/kg, rat serum, p.o., 25 mg/kg, read-out: Cmax): 200 ng/mL
- half-life ([1]; po, 75 mg/kg, p.o., 75 mg/kg, read-out: t1/2 (converted)): 4.7 ± 0.4 h
- AUC(0-t) ([1]; po, 75 mg/kg, p.o., range over 10, 25 and 75 mg/kg doses, read-out: area under the curve from 0 to 48 h (AUC0→t)): 510 to 1500 ng·h/mL
- half-life ([1]; po, 75 mg/kg, p.o., range over 10, 25 and 75 mg/kg doses, read-out: half-life (t1/2)): 4.38 to 4.7 h
- AUC(0-t) ([1]; po, 75 mg/kg, rat serum, p.o., 75 mg/kg, read-out: AUC0→t): 1500 ng·h/mL
- Cmax ([1]; po, 75 mg/kg, rat serum, p.o., 75 mg/kg, read-out: Cmax): 300 ± 100 ng/mL
- Cmax ([1]; po, range over 10, 25 and doses, read-out: maximum concentration (Cmax) of drug in serum): 50 to 310 ng/mL
- amount in colon until 48 h ([2]; i.m.): 7849 ± 243 ng/mg
- highest level in cecum ([2]; i.m.): 63404 ± 407 ng/mg
- highest level in jejunum ([2]; i.m.): 12551 ± 432 ng/mg
- highest level in large intestine ([2]; i.m.): 17978 ± 116 ng/mg
- highest level in lung ([2]; i.m.): 15345 ± 579 ng/mg
- highest level in small intestine ([2]; i.m.): 37890 ± 437 ng/mg
- amount in colon until 48 h ([2]; i.v.): 3214 ± 177 ng/mg
- highest level in cecum ([2]; i.v.): 62457 ± 675 ng/mg
- highest level in jejunum ([2]; i.v.): 23543 ± 799 ng/mg
- highest level in large intestine ([2]; i.v.): 31241 ± 355 ng/mg
- highest level in lung ([2]; i.v.): 39411 ± 357 ng/mg
- highest level in small intestine ([2]; i.v.): 26753 ± 690 ng/mg
- amount in colon until 48 h ([2]; p.o.): 22114 ± 215 ng/mg
- highest level in cecum ([2]; p.o.): 31087 ± 452 ng/mg
- highest level in jejunum ([2]; p.o.): 38769 ± 546 ng/mg
- highest level in large intestine ([2]; p.o.): 4123 ± 567 ng/mg
- highest level in lung ([2]; p.o.): 14685 ± 654 ng/mg
- highest level in small intestine ([2]; p.o.): 6743 ± 474 ng/mg
- DPTM in urine (192 h) and feces (240 h) at the last acquisition time point ([3]; LLOQ 5 ng/mL): lower than that of the LLOQ
- prototype drug excreted in urine at 192 h ([3]; i.m.): 1.39%
- prototype drug excreted in urine at 192 h ([3]; i.v.): 1.63%
- prototype drug excreted in urine at 192 h ([3]; p.o.): 1.20%
SMILES: C=CC1(C)CC(OC(=O)CSc2nc(N)cc(N)n2)C2(C)C(C)CCC3(CCC(=O)C32)C(C)C1O (stereo not shown) [DPTM, 14-O-[(4,6-Diaminopyrimidine-2-yl)thioacetyl] mutilin]
